From patent publication US20150086530A1, “DOSING REGIMENS FOR THE TREATMENT OF POMPE DISEASE” (Amicus Therapeutics, Inc., priority 2012, published 2015)
Like-named read-outs stand apart in the source and are kept apart here.

Tests used:
[1] = AT2220 concentration in muscle biopsies by LC-MS/MS in Pompe patients; assay type: in vivo, human; conditions: for muscle concentrations from Day 3 or Day 7 biopsies: 50 mg and 100 mg, lower limit of quantitation 8 ng/g; for concentration at 7 day / concentration at 3 day: human, muscle, oral, read-out: Muscle AT2220 Conc
Description: GAA enzyme activity will be examined in muscle biopsy samples. One piece of muscle tissue will be removed as described in Table 1. GAA activity in muscle will be determined by a validated assay measuring enzyme activity using 4-MUG, with and without Con A. GAA protein levels will be measured by Western blotting using anti-human GAA antibody. 1-deoxynojirimycin hydrochloride concentrations in muscle samples collected in Period 2 will be determined using a validated LC-MS/MS assay.

[2] = Safety assessment in Pompe patients (adverse events, urine Hex4, CPK, ALT/AST, muscle strength); assay type: in vivo, human; conditions: for Adverse event: Intensity / Adverse event: Relation to Study Drug? / Adverse event: Was Event Serious?: per adverse event
Description: Dose escalation to the next dose level of 1-deoxynojirimycin hydrochloride may proceed following review of safety and tolerability data from the previous dose level group(s). Safety data reviewed will include adverse events (including infusion reactions), clinical laboratory tests (including creatine kinase, LDH (LDH-5), alkaline phosphatase, AST, ALT), Hex4, 12-Lead ECGs, physical examinations, muscle strength tests and vital signs.
Safety parameters will be assessed by review of changes in physical exam findings, vital signs, ECG changes over time, clinical labs, Hex4 and adverse events.
Blood samples for clinical laboratory tests (hematology, serum chemistry) and urinalyses will be collected according to the schedule in Table 1. • Hematology tests include total hemoglobin, hematocrit, erythrocyte, platelet and leukocyte counts with differential. • Coagulation (screening only) includes INR and aPTT. • Serum chemistry includes measurement of AST, ALT, alkaline phosphatase, total bilirubin, creatinine, creatine kinase, urea, glucose, calcium, sodium, potassium, magnesium, total protein, albumin, bicarbonate, LDH (LDH-5), blood urea nitrogen, chloride, and phosphate. • Urinalysis includes color, appearance, specific gravity, pH, protein, glucose, ketones, blood, leukocyte esterase, nitrite, bilirubin, urobilinogen and microscopy of sediment
Muscular strength tests, assessed by hand held dynamometer, will be conducted at Screening, Days −1 and 7 of each period and at Follow-up. Proximal and distal muscle groups will be evaluated.

Muscle AT2220 Conc ([1]; Cohort 2, 100 mg AT2220, Period 2, biopsy Day 3, individual subjects, LLOQ = 8.0 ng/g (16.0 or […] for diluted samples)): BLQ^c | muscle AT2220 concentrations ([1]; Cohort 3 (250 mg) vs lower doses, preliminary): Dose-related increases | subjects with a quantifiable AT2220 concentration in muscle ([1]; Cohort 3 (250 mg), biopsies 3 or 7 days post dose, preliminary): 4 of 6 | Muscle AT2220 Conc ([1]; Cohort 3, 250 mg AT2220, Period 2, biopsy Day 7, individual subjects, LLOQ = 8.0 ng/g (16.0 or […] for diluted samples)): 27.9 ng/g | Muscle AT2220 Conc ([1]; Patient D, 50 mg, Period 2, Day 7, LLOQ = 8.0 ng/g): BLQ | Muscle AT2220 Conc ([1]; Patient F, 100 mg, Period 2, Day 7, sample diluted 2-fold, LLOQ = […]): BLQ^b | Muscle AT2220 Conc ([1]; Patient G, 100 mg, Period 2, Day 7, LLOQ = 8.0 ng/g): BLQ | Muscle AT2220 Conc ([1]; Patient H, 100 mg, Period 2, Day 3, sample diluted 2-fold, LLOQ = […]): BLQ^b | Muscle AT2220 Conc ([1]; Patient I, 100 mg, Period 2, Day 7, sample diluted 2-fold, LLOQ = […]): BLQ^b | Muscle AT2220 Conc ([1]; Patient J, 100 mg, Period 2, Day 3, sample diluted 3-fold, LLOQ = […]): BLQ^c | concentration at 7 day ([1]; 50 mg, Cohort 1, 50 mg AT2220, Period 2, biopsy Day 7, individual subjects, LLOQ = 8.0 ng/g (16.0 or […] for diluted samples)): 13.1 ng/g | concentration at 7 day ([1]; 50 mg, Patient A, 50 mg, Period 2, Day 7, LLOQ = 8.0 ng/g): 11.8 ng/g | concentration at 7 day ([1]; 50 mg, Patient B, 50 mg, Period 2, Day 7, LLOQ = 8.0 ng/g): 10 ng/g | concentration at 7 day ([1]; 50 mg, Patient C, 50 mg, Period 2, Day 7, LLOQ = 8.0 ng/g): 13.1 ng/g | concentration at 3 day ([1]; 100 mg, Cohort 2, 100 mg AT2220, Period 2, biopsy Day 3, individual subjects, LLOQ = 8.0 ng/g (16.0 or […] for diluted samples)): 17.8 ng/g | concentration at 3 day ([1]; 100 mg, Patient E, 100 mg, Period 2, Day 3, LLOQ = 8.0 ng/g): 17.8 ng/g | concentration at 3 day ([1]; 250 mg, Cohort 3, 250 mg AT2220, Period 2, biopsy Day 3, individual subjects, LLOQ = 8.0 ng/g (16.0 or […] for diluted samples)): 54.4 ng/g | concentration at 7 day ([1]; 250 mg, Cohort 3, 250 mg AT2220, Period 2, biopsy Day 7, individual subjects, LLOQ = 8.0 ng/g (16.0 or […] for diluted samples)): 28.1 ng/g
Structure (SMILES): OC[C@H]1NC[C@H](O)[C@@H](O)[C@@H]1O [AT2220, (2R,3R,4R,5S)-2-hydroxymethyl-piperidine-3,4,5-triol]
muscle concentrations from Day 3 or Day 7 biopsies [1]: either below or near the lower limit of quantitation | muscle concentrations from Day 3 or Day 7 biopsies ([1]; listed as 1-DNJ-HCl): either below or just above the lower limit of quantification | clearance from muscle ([1]; all four cohorts, Day 7): cleared from muscle to near-undetectable levels by Day 7 | Adverse event: Intensity ([2]; Cohort 1 (50 mg 1-DNJ-HCl)): Mild | Adverse event: Relation to Study Drug? ([2]; Cohort 1 (50 mg 1-DNJ-HCl)): Unrelated | Adverse event: Was Event Serious? ([2]; Cohort 1 (50 mg 1-DNJ-HCl)): No | ALT/AST ([2]; Cohort 1 (50 mg), 4 subjects): No drug related elevations | CPK ([2]; Cohort 1 (50 mg), 4 subjects): no drug related elevations beyond subjects' baseline values range | Muscle strength ([2]; Cohort 1 (50 mg), 4 subjects): No change between Periods 1 and 2 | SAE / drug-related AEs ([2]; Cohort 1 (50 mg), 4 subjects): No SAE or drug-related AEs | Urine Hex4 ([2]; Cohort 1 (50 mg), 4 subjects): no drug related elevations | Adverse event: Intensity ([2]; Cohort 2 (100 mg 1-DNJ-HCl)): Mild | Adverse event: Relation to Study Drug? ([2]; Cohort 2 (100 mg 1-DNJ-HCl)): Unrelated | Adverse event: Was Event Serious? ([2]; Cohort 2 (100 mg 1-DNJ-HCl)): No | ALT/AST ([2]; Cohort 2 (100 mg), 5 subjects): No drug related elevations | CPK ([2]; Cohort 2 (100 mg), 5 subjects): no drug related elevations beyond subjects' baseline range | Hex4 ([2]; Cohort 2 (100 mg), 5 subjects): no drug related elevations | Muscle strength ([2]; Cohort 2 (100 mg), 5 subjects): No change between Periods 1 and 2 | SAE / drug-related AEs ([2]; Cohort 2 (100 mg), 5 subjects): No SAE or drug-related AEs | Adverse Event ([2]; Cohort 2 (rhGAA alone, then rhGAA + 100 mg 1-DNJ-HCl), per patient): None | CPK levels ([2]; Cohorts 1 and 2): did not appreciably change from baseline | relation of reported adverse events to drug ([2]; Cohorts 1 and 2, only mild, transient adverse events reported): none of which were related to AT2220 | urine hex 4 levels ([2]; following a single dose of AT2220, Cohorts 1 and 2): either did not change from baseline, or did not show any consistent trend | tolerability ([2]; single doses co-administered with ERT, Cohorts 1-4 (50-600 mg)): well-tolerated, with no drug-related adverse events reported | safety and tolerability ([2]; single doses of 50 mg and 100 mg, patients with Pompe Disease): safe and well-tolerated
